From patent US20050003383A1, “Linoleate isomerase” (Arkion Life Sciences LLC d/b/a Bio-Technical Resources …, priority 1999, published 2005)
Read-outs that look alike come from different tables or passages of the source. One block for each molecule: values may come before it.

Key:
[1] = test system: B. fibrisolvens A-38 linoleate isomerase; conditions: cited from earlier work; for Km / Vmax: compound as substrate, Kepler and Tove (1967)
[2] = test system: linoleate isomerase from Clostridium sporogenes; assay: C. sporogenes linoleate isomerase kinetic assay, absorbence at 234 nm, partially purified enzyme; type: biochemical; conditions: for substrate has an inhibitory effect at concentrations above: substrate concentration dependency of isomerization
Experimental: In this experiment, all kinetic experiments were performed in a quartz cuvette (1-cm light-path with a magnetic stirrer) at room temperature using a HP 8452A diode array spectrophotometer. The cuvette was filled with 1 ml of incubation buffer containing 50 μg protein, 0.1 M potassium phosphate, pH7.5, 10 mM NaCl and 10% 1,2-propane diol. The isomerization was initiated by adding a small aliquot (1-2 μl) of freshly diluted substrate-stock (˜[…] linoleic acid) in 1,2-propane diol at 50 seconds. The increase in absorbence at 234 nm was monitored and recorded. […] The amount of product formed was calculated based on a molar extinction coefficient of 24,000.

[3] = test system: C. sporogenes ATCC 25762 linoleate isomerase; assay: C. sporogenes isomerase activity and stability in extracts with additives; type: biochemical, Clostridium sporogenes; conditions: for effect of chelating agents on enzyme activity and stability: 1 mM; for effect on the stability of the isomerase: PMSF 0.1-1.0 mM, iodoacetamide 1 mM
Experimental: Temperature sensitivity of the isomerase in crude extracts was tested at 4° C., room temperature (˜25° C.) and 37° C. […] The optimum pH was monitored by adjusting the pH from 5.0 to 9.0 using the 0.1M Tris buffer containing 10 mM NaCl, 1 mM DTT and 40 ppm linoleic acid.
The concentration of linoleic acid was tested from 0 to 100 ppm (FIG. 26).
Two different media, BHI and MRS, were tested. […] Protease inhibitors, PMSF (0.1-1.0 mM), iodoacetamide (1 mM) and pepstatin A were tested for their effects on the stability of the isomerase.
It has been reported that solubilization in the presence of lysophosphatidylcholine (LPC) allows higher detergent concentrations to be used, thus allowing more complete membrane protein solubilization. CaCl2 can activate enzymes, such as some nucleases.

[4] = cited from earlier work
[5] = test system: L. reuteri PYR8; assay: Whole cell biotransformation of linoleic acid to CLA by L. reuteri PYR8; type: cell-based, Lactobacillus reuteri; conditions: for effect on (cis,trans)-9,11-CLA formation: nonionic detergent added
Experimental: Cultures were grown and harvested as described above. Washed cells were resuspended in either fresh growth medium or 0.1 M Tris pH 8.0 buffer containing linoleic acid at various concentrations.
Samples were taken at appropriate intervals and analyzed for CLA as described in Example 2. In some experiments, various detergents were added to 0.1-0.5% final concentration. […] About 5 mL solvent was added to about 20 mL aqueous cell suspension in a 125 mL baffled shake flask incubated at room temperature.
Whole cells of L. reuteri PYR8 were used in all biotransformation experiments described below.
The effect of substrate and product on the enzyme performance was also investigated, as well as the possibility of recycling the cells. The effect of CLA on the reaction was studied by adding different concentrations of either a mixture of isomers (Sigma material, approximately 41% 9,11 isomer and 48% 10,12 CLA), or just 9,11 CLA (Matreya material, approximately 77% 9,11 CLA). Concentrations from 500 to 3000 ppm were tested. Some experiments were also performed recycling the broth from a previous biotransformation reaction with L. reuteri PYR8, resulting in an initial CLA concentration around 700 ppm. In every case, 1000 ppm linoleic acid were added.
In the second experiment, cell recycle was studied with cells that have performed the biotransformation at different levels of linoleic acid. Cells were harvested, resuspended in breakage buffer at a 10-fold concentration, and linoleic acid was added at 1000, 1500, 2000, 2500 and 3000 ppm level. Given the higher linoleic acid concentration, the reaction was allowed to proceed for six hours. […] 1000 ppm linoleic acid were added and the reaction was followed for four hours.

[6] = biological target: P. acnes ATCC 6919 linoleate isomerase (Cutibacterium acnes, UniProt Q6A8X5); type: biochemical, Propionibacterium acnes
Experimental: Formation of CLA was determined by measuring the absorbence at 234 nm. […] Generally, the isomerase was assayed using an endpoint assay after 30 to 60 minutes incubation at room temperature. FIG. 18 (time course assay at different linoleic acid levels) and FIG. 19 (end point assay at different linoleic acid levels) show the effect of increasing substrate concentration on formation of […].

[7] = test system: L. reuteri PYR8 linoleate isomerase; assay: L. reuteri PYR8 linoleate isomerase kinetic assay; type: biochemical, Lactobacillus reuteri
Experimental: Linoleic isomerase activity was assayed either via CLA quantification by gas chromatography as described in Example 2 or by spectrophotometry. The enzyme assay was carried out in 0.1 M Tris buffer pH 7.5, 10 mM NaCl, 1 mM dithiothreitol, with linoleic acid at 20 parts per million (ppm), unless otherwise noted.
About 50 to about 250 μL of enzyme sample was added to 1.5 mL of enzyme assay buffer for reaction. About 1 to about 2 mL of aqueous phase was separated from the enzyme reaction and was extracted with about 3 mL of hexane. In some experiments, and with chromatography fractions containing detergent, 0.5 mL of methanol and 0.5 mL of 5 M NaCl solution were first added to enhance phase separation. The organic layer was separated and the absorbence at 234 nm was measured using a HP 8452A diode array spectrophotometer. Depending on the level of activity, assay mixtures of chromatography fractions were incubated at room temperature from about 1 to about 24 hours before extraction with hexane.
Kinetic assays were performed directly in a 0.5 mL quartz cuvette at room temperature and were continuously monitored at 234 nm. Reactions were initiated by addition of linoleic acid from a concentrated stock prepared in 1,2-propane diol. Reaction buffer was the same as above except it contained 10% 1,2-propane diol.

[8] = Linoleate isomerase characterization (Table 7B), enzymes compared on linoleic acid; type: biochemical
Experimental: Table 7B is a summary of the kinetic data and characterization of linoleate isomerases from P. acnes (crude extract prior to DEAE purification as in Example 11, except that the Vmax was determined using enzyme purified through the chromatofocusing step as in Example 11), L. reuteri (enzyme purified through the gel filtration step as in Example 3), and C. sporogenes (enzyme purified through the gel filtration step as in Example 17), all isolated by the present inventors, and the B. fibrisolvens A-38 linoleate isomerase (crude extract; Kepler and Tove, 1967, J. Biochem. 242:5686-5692). The substrate in these experiments was linoleic acid.

[9] = compound as substrate at 10 PPM, activity with linoleic acid set as 100%
[10] = compound as substrate, read-out: Km
[11] = pH of about 7.5, about 20° C., read-out: Km for linoleic acid
[12] = substrate linoleic acid, purified enzyme

Sequence of P. acnes ATCC 6919 linoleate isomerase (Q6A8X5 entry or part of it): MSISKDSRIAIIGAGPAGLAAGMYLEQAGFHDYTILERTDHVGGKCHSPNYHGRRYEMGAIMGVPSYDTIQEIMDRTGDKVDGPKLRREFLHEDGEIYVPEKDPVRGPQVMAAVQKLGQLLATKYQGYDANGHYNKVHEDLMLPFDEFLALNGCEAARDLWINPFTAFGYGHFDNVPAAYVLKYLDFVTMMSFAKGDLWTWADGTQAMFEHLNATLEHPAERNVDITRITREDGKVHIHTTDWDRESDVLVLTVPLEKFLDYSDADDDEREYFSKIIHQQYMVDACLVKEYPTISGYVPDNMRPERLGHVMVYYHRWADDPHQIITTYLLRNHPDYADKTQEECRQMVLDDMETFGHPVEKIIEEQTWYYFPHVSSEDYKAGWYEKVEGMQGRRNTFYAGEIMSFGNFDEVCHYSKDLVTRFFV

Molecule: CCCCCCCC/C=C\CCCCCCCC(=O)O [oleic acid, (cis)-9 octadecenoic acid]
- type of inhibition ([1]; reported by Kepler and Tove): competitive inhibition
- type of inhibition ([2]; 0, 24 and 48 μM oleic acid, varied linoleic acid, Lineweaver-Burke and Hanes-Woolf plots): uncompetitive inhibitor
- isomerase activity in the presence of inhibitor ([2]; 70 μM oleic acid (20 PPM)): almost completely lost
- RELATIVE ACTIVITY % ([2]; compound added at 35 μM, substrate LA 35 μM, pH 7.5, LA alone = 100%): 25%
- RELATIVE ACTIVITY % [2, 9]: 0%
- Ki ([2]; inhibition of linoleic acid isomerization, calculated from secondary plots, read-out: inhibition constants (Ki)): 23.8 µM

Molecule: O=C(O)CN(CCN(CC(=O)O)CC(=O)O)CC(=O)O [EDTA]
- effect of chelating agents on enzyme activity and stability ([3]; crude extracts): negative effect

Molecule: CC/C=C\C/C=C\C/C=C\CCCCCCCC(=O)O [linolenic acid, (cis, cis, cis)-9, 12, 15 octadecatrienoic acid]
- Km [1]: 23 µM
- Vmax [1]: 130 nmole/min/mg protein
- Vmax ([2]; compound as substrate): 811 nmole/min/mg protein
- RELATIVE ACTIVITY % [2, 9]: 84%
- Km [2, 10]: 22.5 µM
- substrate has an inhibitory effect at concentrations above [2]: > 40 µM

Molecule: pepstatin A
- effect on the stability of the isomerase [3]: None provided measurable benefit

Molecule: CCCCCCCCCCCCCCCC [hexadecane]
- log P [4]: 8.6

Molecule: Triton X-100
- effect on (cis,trans)-9,11-CLA formation [5]: does not significantly increase

Molecule: NC(=O)CI [iodoacetamide]
- effect on the stability of the isomerase [3]: None provided measurable benefit

Molecule: [Ca+2].[Cl-].[Cl-] [CaCl2]
- effect on enzyme activity ([3]; Tris and phosphate buffer systems): decreased the enzyme activity

Molecule: CCCCC/C=C\C/C=C\CCCCCCCC(=O)O [linoleic acid, (cis, cis)-9, 12-octadecadienoic acid]
- optimum concentration for linoleic acid ([3]; tested from 0 to 100 ppm, crude extracts): 40 ppm
- Km [6, 11]: ≥ 17.2 µM
- Vmax ([7]; compound as substrate): 880 nmole/min/mg protein
- Km [7, 10]: 8.1 µM
- Km [7, 11]: ≥ 8.1 µM
- Km [1]: 12 µM
- Vmax [1]: 55 nmole/min/mg protein
- maximal velocity (Vmax) ([2]; Lineweaver-Burke plot): 350 μmol CLA/min/mg protein
- Km ([2]; Lineweaver-Burke plot, read-out: Km): 11.3 µM
- Vmax ([2]; compound as substrate): 350 nmole/min/mg protein
- RELATIVE ACTIVITY % [2, 9]: 100%
- Km [2, 10]: 11.3 µM
- Km [2, 11]: ≥ 11.3 µM
- substrate has an inhibitory effect at concentrations above [2]: above 20 μM
- substrate inhibition ([5]; up to 3000 ppm linoleic acid, cells with good activity): no substrate inhibition was detected

Molecule: O=S(=O)(F)Cc1ccccc1 [PMSF]
- effect on the stability of the isomerase [3]: None provided measurable benefit

Molecule: c1cnc2c(c1)ccc1cccnc12 [1,10-phenanthroline]
- effect of chelating agents on enzyme activity and stability ([3]; crude extracts): protected
- inhibition of isomerase activity ([6]; EDTA 5 mM, 1,10-phenanthroline 1 mM, p-chloromercuribenzoate 5 μM, N-ethylmaleimide 100 μM): not inhibited

Molecule: CCCCCCCC/C=C\CCCCCCCC(=O)OCCOCC(OCCO)C1OCC(OCCO)C1OCCO (centres unmarked) [Tween-80]
- effect on (cis,trans)-9,11-CLA formation [5]: does not significantly increase

- CLA Isomer ([8]; CLA isomer produced from linoleic acid): 9,11
B1: L. reuteri: (cis, trans)-9,11-linoleate isomerase from Lactobacillus reuteri PYR8, SEQ ID NO:18 (protein, listed as Lactobacillus reuteri)
chain: MYYSNGNYEAFARPKKPAGVDKKHAYIVGGGLAGLSAAVFLIRDAQMPGENIHILEELPVAGGSLDGEDRPGIGFVTRGGREMENHFECMWDMYRSIPSLEIPGASYLDEYYWLDKEDPNSSNCRLTYKRGNEVPSDGKYGLSKKAIKELTKLIMTPEEKLGRETIGEYFSDDFFESNFWIYWSTMFAFERWHSLAEMRRYMMRFIHHIDGLPDFTALKFNKYNQYESMTKPLLAYLKDHHVKIEYDTQVKNVIVDTHGRQKHAKRILLTQAGKDKVVELTDNDLVFVTNGSITESSTYGSHHQAARPTQALGGSWKLWENLARQSADFGHPDVFCKNLPGRSWFISATATVKNPQVEPYIERLTKRDLHDGKVNTGGIITVTDSNWMLSWTIHRQPHFKKQKKNETIVWIYGLYSNTKGNYIKKRIVDCTGEEITKEWLSIWGFQKPLIDDLAKESSINTVPVYMPFITSYFMPRVKGDRPDVVPEGSANLAFIGNFAESPSRDTVFTTEYSVRTAMEAVYTLLDVDRGVPEVFNSIYDLRELMRAMYYMNDKKPLKDMDLPIPKIVEKPLLKKLQGTWIGELMEQQHLL
- Optimal pH ([8]; substrate linoleic acid): 7.5
- Km [8, 12]: 8.1 µM
- Vmax [8, 12]: 880^5 nmol/min/mg
